The values that follow come from patent publication US20240164998A1, “FRAGRANCE COMPOSITION” (TAKASAGO INTERNATIONAL CORPORATION, priority 2022, published 2024).

The nature of assay [1]: Sensory evaluation of fragrance compositions against model body odor. Conditions: each malodor (model body odor, model nursing care odor); substance in floral base fragrance composition. Further details: species or system people. How it is done:
TEC in the tables indicates triethyl citrate. […] Note that, a grouping method and the ratio within the groups are optional and are not limited by Table 9. Floral bases in Table 2 to Table 8 were prepared according to Table 10.
The malodor prevention ability of these fragrance compositions was confirmed by sensory evaluation. As for malodor, model body odor and model nursing care odor containing hexanal as one of key components were prepared according to Table 11 and Table 12. 10 μL of each model malodor and 1 μL of the fragrances 1 to 60 as test substances were dropped into a cotton ball, which was charged into a plastic bottle. The bottle was left standing at room temperature for 30 minutes to allow odor molecules to sufficiently volatilize inside the bottle. A sensory evaluation test was performed by a panel of 20 people, the discomfort when the malodor was dropped alone was rated as −3, and the discomfort when the test substance was mixed was evaluated from −4 (extremely discomfortable) to +4 (extremely comfortable). An average value was calculated from the obtained numerical values.

A short description of assay [2]: Sensory evaluation of malodor prevention ability of group A against hexanal odor. Further details: species or system people. The conditions noted are these: scale 0 (no malodor felt) to 10 (very strong); hexanal alone rated 8; 10 μL hexanal diluted 100 times + 1 μL test substance, 1 hour room temperature; average of panel of 20. The method, then:
The malodor prevention ability of a test substance was confirmed by sensory evaluation. As malodor, 10 μL of hexanal diluted 100 times with dipropylene glycol and 1 μL of the test substance were dropped into a cotton ball, which was charged into a plastic bottle. The bottle was left standing at room temperature for 1 hour to allow odor molecules to sufficiently volatilize inside the bottle. A sensory evaluation test was performed by a panel of 20 people, a malodor intensity when the malodor was dropped alone was rated as 8, and the odor intensity when the test substance was mixed was evaluated from 0 (no malodor was felt) to 10 (very strong malodor was felt). An average value was calculated from the obtained numerical values.

Where a name gives a salt, the structure may show the parent alone.

With `O=C1CCCC=CCCCCCCCCCC1` [Ambretone, 5-cyclohexadecenone], the “effect on reducing the discomfort due to malodor (in words)” value (shortened to “effect on reducing the discomfort due”) in assay [1] is “reduced the discomfort due to each malodor”. In addition, in assay [2], the Hexanal odor intensity was found to be 3.5. With `CC1CCC(C(C)C)C(OCC(O)CO)C1` (stereo not shown) [COOLACT 10, 3-(menthoxy)propane-1,2-diol], in assay [2], the Hexanal odor intensity came to 3.3.

Consider `C=C(C)C1CC=C(C)C(=O)C1` (stereo not shown) [Carvone, reference compound], for which the Hexanal odor intensity in assay [2] is on record as 7.1.

Regarding `CCCC(O)CCC1C(C)CCCC1(C)C` (stereo not shown) [Dextramber, 1-(2,2,6-trimethylcyclohexyl)hexan-3-ol], the “effect on reducing the discomfort due” value in assay [1] was “reduced the discomfort due to each malodor”. Moreover, the Hexanal odor intensity in assay [2] was 3.0. On to `CCCCCC1C(=O)CCC1CC(=O)OC` (stereo not shown) [Hedione, methyl (2-pentyl-3-oxo-cyclopentyl) acetate], for which the “effect on reducing the discomfort due” value in assay [1] is “reduced the discomfort due to each malodor”. Moreover, the Hexanal odor intensity in assay [2] was found to be 4.2. As for `CC(=CCC1CC=C(C)C1(C)C)CO` (stereo not shown) [Hindinol, 2-methyl-4-(2,2,3-trimethyl-3-cyclopentenyl)-2-buten-1-ol], in assay [1], the “effect on reducing the discomfort due” value is recorded as “reduced the discomfort due to each malodor”. Also, in assay [2], the Hexanal odor intensity is 3.9. On the same counts, the results for `C=C(C)[C@@H]1CC[C@@H](C)C[C@H]1O` [Isopulegol, isopulegol] are “reduced the discomfort due to each malodor” and 3.4. On to `CC(C)[C@@H]1CC[C@@H](C)CC1=O` [Menthone, reference compound], for which, in assay [2], the Hexanal odor intensity is reported as 6.9. With `CC(=O)C1(C)CC2=C(CCCC2(C)C)CC1C` (stereo not shown) [Orbitone, 2-acetyl-2,3,8,8-tetramethyloctarine], in assay [1], the “effect on reducing the discomfort due” value is given as “reduced the discomfort due to each malodor”. Further, the Hexanal odor intensity in assay [2] is given as 3.9. As for `CC(c1ccccc1)C1CC1C(C)(C)O` (stereo not shown) [Pamplefix, 50% triethyl citrate solution, dimethyl-2-(1-phenylethyl)cyclopropylmethanol], the “effect on reducing the discomfort due” value in assay [1] was “reduced the discomfort due to each malodor”. The Hexanal odor intensity in assay [2] was 4.1.

`CC1=CCC(C(C)C)C=C1` (stereo not shown) [Phellandrene, p-mentha-1,5-diene]: the “effect on reducing the discomfort due” value in assay [1] is given as “reduced the discomfort due to each malodor”. Moreover, the Hexanal odor intensity in assay [2] is listed as 4.1. On the same counts, the results for `CCOC(=O)C1C(C)CCCC1(C)C` (stereo not shown) [Thesaron, ethyl 2,2,6-trimethylcyclohexane-1-carboxylate] are “reduced the discomfort due to each malodor” and 2.6. For the compound `CCOC(=O)C(C)C(C)S` (stereo not shown) [ethyl 3-mercapto-2-methylbutyrate], the “effect on reducing the discomfort due” value in assay [1] is “reduced the discomfort due to each malodor”. In addition, the Hexanal odor intensity in assay [2] was found to be 3.1. On the same counts, the results for `CC(=O)C(C)=CC1C(C)=CCCC1(C)C` (stereo not drawn) [α-isomethylionone, 3-methyl-4-(2,6,6-trimethyl-2-cyclohexen-1-yl)-3-buten-2-one] are “reduced the discomfort due to each malodor” and 3.1.
